Test systems include SK-MEL-28 melanoma; OVCAR-5 ovarian; SF-295 CNS; NCI-H23 lung; SR leukemia; NCI-H226 lung; UACC-257 melanoma; HCT-116 colon; A549 NSCLC; SW-620 colon; SN12C renal; SF-539 CNS; TK-10 renal; MDA-N; DU-145 prostate; CCRF-CEM leukemia.
What all share (assay): NCI tumour cell line growth inhibition, 48 h

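Values below derive from 48-hour exposures of cells grown in 96-well plates, with endpoints linearly interpolated between the two concentrations bracketing the appropriate inhibition level. TGI: concentration producing complete growth inhibition.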

As to `CN(C(=O)Cc1ccc(Cl)c(Cl)c1)[C@H]1CCCC[C@@H]1[N+]1(C)CCCC1`, the TGI in the experiment with SK-MEL-28 melanoma, with OVCAR-5 ovarian, with SF-295 CNS, in the experiment on NCI-H23 lung, in the experiment with SR leukemia and with NCI-H226 lung was above 100 µM throughout. Also, the TGI in the experiment on UACC-257 melanoma, with HCT-116 colon, in the experiment on A549 NSCLC, in the experiment with SW-620 colon, with SN12C renal and in the experiment with SF-539 CNS was above 100 µM throughout. Moreover, the TGI with TK-10 renal, with MDA-N and in the experiment with DU-145 prostate was above 100 µM each time.
On to `COC(=O)/C=C(\C)C(=O)N(C)c1ccccc1I`, for which the TGI in the experiment on SK-MEL-28 melanoma, with OVCAR-5 ovarian, with SF-295 CNS, in the experiment with NCI-H23 lung, in the experiment on SR leukemia and in the experiment with NCI-H226 lung was above 100 µM in each case. The TGI in the experiment on CCRF-CEM leukemia, with UACC-257 melanoma, in the experiment with HCT-116 colon, with A549 NSCLC, in the experiment on SW-620 colon and in the experiment with SN12C renal was above 100 µM in each case. Further, the TGI with MDA-N and in the experiment on DU-145 prostate was above 100 µM in each case.
With `CN1C(=S)C(c2ccccc2)Sc2ccccc21` (configuration not stated), the TGI with SK-MEL-28 melanoma was above 100 µM; with OVCAR-5 ovarian it was above 100 µM; in the experiment on SF-295 CNS it was 89.4 µM; in the experiment with NCI-H23 lung, above 100 µM; in the experiment with SR leukemia, above 100 µM; in the experiment on NCI-H226 lung it was above 100 µM. Further, the TGI in the experiment on CCRF-CEM leukemia, with UACC-257 melanoma, in the experiment with HCT-116 colon, with A549 NSCLC, with SN12C renal and in the experiment with TK-10 renal was above 100 µM throughout. Further, the TGI in the experiment on MDA-N and in the experiment with DU-145 prostate was above 100 µM each time.
In the case of `CC(C)SC(C)(NC(=O)C1C(C)(C)CCC1(C)C)C(=O)O` (configuration not stated), the TGI with SK-MEL-28 melanoma, in the experiment with OVCAR-5 ovarian, with NCI-H23 lung, in the experiment on SR leukemia, in the experiment with NCI-H226 lung and with CCRF-CEM leukemia was above 100 µM in each case. The TGI in the experiment with HCT-116 colon, in the experiment on A549 NSCLC, with SW-620 colon, with SN12C renal, in the experiment with SF-539 CNS and in the experiment on TK-10 renal was above 100 µM in each case. Further, the TGI with MDA-N and in the experiment with DU-145 prostate was above 100 µM throughout.
Consider `O=C1CSc2nc3ccccc3n2/C=N\N1`, for which the TGI with SK-MEL-28 melanoma, in the experiment on OVCAR-5 ovarian, in the experiment on SF-295 CNS, in the experiment on NCI-H23 lung, in the experiment on SR leukemia and in the experiment with NCI-H226 lung was above 100 µM throughout. Also, the TGI with CCRF-CEM leukemia, in the experiment on UACC-257 melanoma, in the experiment on HCT-116 colon, in the experiment with A549 NSCLC, in the experiment with SW-620 colon and in the experiment with SN12C renal was above 100 µM throughout. The TGI in the experiment with TK-10 renal, in the experiment with MDA-N and in the experiment on DU-145 prostate was above 100 µM throughout.
Consider `ClC(Cl)(Cl)C1=N[C@H]2[C@H](Br)[C@@H]3O[C@@H](c4ccccc4)[C@H](c4ccccc4)O[C@@H]3[C@H]2O1`, for which the TGI in the experiment with SK-MEL-28 melanoma is 37.1 µM; with OVCAR-5 ovarian, 37.5 µM; in the experiment with SF-295 CNS it was 34.3 µM; in the experiment on NCI-H23 lung, 42.3 µM; in the experiment with SR leukemia, 52.2 µM; in the experiment on NCI-H226 lung, 35.5 µM. Besides, the TGI in the experiment on CCRF-CEM leukemia came to 47.2 µM; in the experiment on UACC-257 melanoma, 37.3 µM; in the experiment with HCT-116 colon, 39 µM; with A549 NSCLC, 49.2 µM; in the experiment with SW-620 colon it was 44.8 µM; in the experiment with SN12C renal, 37.2 µM. The TGI with TK-10 renal is 37.5 µM; in the experiment with MDA-N, 38 µM; in the experiment with DU-145 prostate it was 73.7 µM.
Take `CC(=O)N1CCc2c([nH]c3ccc(Br)cc23)C1c1ccccc1` (configuration not stated): the TGI in the experiment with SK-MEL-28 melanoma, in the experiment with OVCAR-5 ovarian, in the experiment on SF-295 CNS, in the experiment with SR leukemia, with NCI-H226 lung and in the experiment with CCRF-CEM leukemia was above 10 µM each time. Further, the TGI with UACC-257 melanoma, in the experiment on HCT-116 colon, in the experiment on A549 NSCLC, with SW-620 colon, with SN12C renal and with SF-539 CNS was above 10 µM throughout. The TGI with TK-10 renal, in the experiment on MDA-N and in the experiment with DU-145 prostate was above 10 µM each time.
`O=C(Nc1cccc(C(F)(F)F)c1)O/N=C(/Cl)CCl`: the TGI was above 100 µM with SK-MEL-28 melanoma; 45.3 µM in the experiment on OVCAR-5 ovarian; above 100 µM in the experiment with SF-295 CNS; above 100 µM with NCI-H23 lung; 62.8 µM in the experiment with SR leukemia; above 100 µM in the experiment with CCRF-CEM leukemia. In addition, the TGI with UACC-257 melanoma, in the experiment on HCT-116 colon, with A549 NSCLC, with SW-620 colon, with SN12C renal and in the experiment with SF-539 CNS was above 100 µM throughout. Besides, the TGI in the experiment on TK-10 renal, in the experiment with MDA-N and in the experiment on DU-145 prostate was above 100 µM each time.
Consider `CC(C(=O)ON1C(=O)CCC1=O)c1ccc(C(=O)c2ccccc2)s1` (configuration not stated), for which the TGI with SK-MEL-28 melanoma, in the experiment on OVCAR-5 ovarian, with SF-295 CNS, in the experiment with NCI-H23 lung, with SR leukemia and in the experiment on NCI-H226 lung was above 100 µM in each case. In addition, the TGI with CCRF-CEM leukemia, with UACC-257 melanoma, in the experiment on HCT-116 colon, with A549 NSCLC, in the experiment on SW-620 colon and in the experiment on SN12C renal was above 100 µM each time. Also, the TGI with TK-10 renal, in the experiment with MDA-N and in the experiment on DU-145 prostate was above 100 µM throughout.
`COc1cc(C2SCC(=O)N2c2ccc(-n3c(-c4ccccc4)nc4ccccc4c3=O)cc2)ccc1O` (configuration not stated): the TGI in the experiment with SK-MEL-28 melanoma, in the experiment on OVCAR-5 ovarian, in the experiment with SF-295 CNS, in the experiment on NCI-H23 lung, in the experiment on SR leukemia and with NCI-H226 lung was above 100 µM throughout. The TGI in the experiment with CCRF-CEM leukemia, in the experiment on UACC-257 melanoma, in the experiment on HCT-116 colon, in the experiment with A549 NSCLC, in the experiment on SW-620 colon and with SF-539 CNS was above 100 µM each time. In addition, the TGI with TK-10 renal, with MDA-N and in the experiment on DU-145 prostate was above 100 µM in each case.
